Common to all, as to test: radiometric assay, pentane extraction and scintillation counting; Lineweaver-Burk
Format in all cases: biochemical, Melaleuca alternifolia

In assay [1] the test system is T1, MaTPS-SaH (sabinene hydrate synthase).
T1 construct: vector pASK-IBA7; expressed in E. coli, crude extract
The settings on record: 0.25 mM manganese; 30 °C; 15 min; 1–30 μM 3H-GPP; crude E. coli extract; labelled compound. The source says: radiometric assay, pentane extraction and scintillation counting; Lineweaver-Burk on MaTPS-SaH (sabinene hydrate synthase)

Assay [2] has as its system T2, MaTPS-Cin (1,8-cineole synthase); MaTPS-CinA.
T2 construct: vector pASK-IBA7; expressed in E. coli, crude extract
Conditions: 0.25 mM manganese; 30 °C; 10 min; 1–30 μM 3H-GPP; crude E. coli extract; labelled compound. The source says:
radiometric assay, pentane extraction and scintillation counting; Lineweaver-Burk on MaTPS-Cin (1,8-cineole synthase); MaTPS-CinA

For assay [3], the system named is T3, MaTPS-Tln (terpinolene synthase).
T3 construct: vector pASK-IBA7; expressed in E. coli, crude extract
Conditions: 0.25 mM manganese; 30 °C; 15 min; 3H-GPP up to 100 μM; crude E. coli extract; labelled compound. The source says:
radiometric assay, pentane extraction and scintillation counting; Lineweaver-Burk on MaTPS-Tln (terpinolene synthase)

A word on the Km: it is the concentration of substrate that gives half-maximal velocity. As to `CC(C)=CCC/C(C)=C/COP(=O)(O)OP(=O)(O)O` [GPP], the results for the Km in assay [1], in assay [2] and in assay [3] were 11 ± 2 µM, 31 ± 6.26 µM and 21 ± 3.18 µM, respectively.
